# Data as given in patent US20260365682A1, “MODULATORS OF TNF-ALPHA ACTIVITY” (Forward Therapeutics, Inc., priority 2022, published 2026).
# Target: T1, TNF-α (Homo sapiens, UniProt P01375)
# T1 construct: purchased R&D 210-TA-020/CF
# Assay: TNF-α Induced HEK Blue Cellular Assay (secreted alkaline phosphatase expression, QUANTI-Blue)
# Type: cell-based
# Settings: HEK Blue TNFα reporter cells; TNF-α 100 μg/ml; 24 hrs at 37° C.; inhibition of secreted alkaline phosphatase; read-out: IC50 value
# Procedure, shortened: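 Compound was serially diluted from […] to 0.5 nM final, then incubated with 10,000 HEK Blue TNFα reporter cells per well and […] TNF-α for 24 h at 37° C. SEAP output was read by QUANTI-Blue absorbance at 620 nm. Inhibition was background-corrected against DMSO controls with and without stimulation, and IC50 was fitted with a 4-parameter logistic equation.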
# T1 sequence (P01375 77-233 limits assumed): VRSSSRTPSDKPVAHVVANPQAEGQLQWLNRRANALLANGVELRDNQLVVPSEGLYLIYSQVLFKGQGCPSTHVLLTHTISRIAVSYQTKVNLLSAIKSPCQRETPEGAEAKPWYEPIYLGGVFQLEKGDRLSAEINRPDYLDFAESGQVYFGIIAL
row,Compound,IC50 [nM]
1,"[2H]C([2H])([2H])N1C(=O)c2cccc(OC(F)F)c2[C@H]2C[C@@H]1c1nc3c(F)cc(C#CC)cc3n12 [Example 109, (7R,14R)-1-(difluoromethoxy)-9-fluoro-6-(methyl-d3)-11-(prop-1-yn-1-yl)-6,7-dihydro-7,14-methanobenzo[f]benzo[4,5]imidazo[1,2-a][1,4]diazocin-5(14H)-one]",100 to 1000
2,"[2H]C([2H])([2H])N1C(=O)c2cccc(OC(F)F)c2[C@H]2C[C@@H]1c1nc3ccc(C#CCOC4CCN(C(=O)OC(C)(C)C)CC4)cc3n12 [Example 116, tert-butyl 4-((3-((7R,14R)-1-(difluoromethoxy)-6-(methyl-d3)-5-oxo-5,6,7,14-tetrahydro-7,14-methanobenzo[f]benzo[4,5]imidazo[1,2-a][1,4]diazocin-11-yl)prop-2-yn-1-yl)oxy)piperidine-1-carboxylate]",1000 to 10000
3,"[2H]C([2H])([2H])N1C(=O)c2cccc(OC(F)F)c2[C@H]2C[C@@H]1c1nc3ccc(C#CCOC4CCNCC4)cc3n12 [Example 117, (7R,14R)-1-(difluoromethoxy)-6-(methyl-d3)-11-(3-(piperidin-4-yloxy)prop-1-yn-1-yl)-6,7-dihydro-7,14-methanobenzo[f]benzo[4,5]imidazo[1,2-a][1,4]diazocin-5(14H)-one]",100 to 1000
4,"[2H]C([2H])([2H])N1C(=O)c2cccc(OC(F)F)c2[C@H]2C[C@@H]1c1nc3ccc(C#CC4CN(S(C)(=O)=O)C4)cc3n12 [Example 121, (7R,14R)-1-(difluoromethoxy)-6-(methyl-d3)-11-((1-(methylsulfonyl)azetidin-3-yl)ethynyl)-6,7-dihydro-7,14-methanobenzo[f]benzo[4,5]imidazo[1,2-a][1,4]diazocin-5(14H)-one]",< 100
5,"[2H]C([2H])([2H])N1C(=O)c2cccc(OC(F)F)c2[C@H]2C[C@@H]1c1nc3ccc(C#CCCN)cc3n12 [Example 123, (7R,14R)-11-(4-aminobut-1-yn-1-yl)-1-(difluoromethoxy)-6-(methyl-d3)-6,7-dihydro-7,14-methanobenzo[f]benzo[4,5]imidazo[1,2-a][1,4]diazocin-5(14H)-one]",100 to 1000
6,"[2H]C([2H])([2H])N1C(=O)c2cccc(OC(F)F)c2[C@H]2C[C@@H]1c1nc3ccc(C#CC4CN(CC(F)(F)F)C4)cc3n12 [Example 124, (7R,14R)-1-(difluoromethoxy)-6-(methyl-d3)-11-((1-(2,2,2-trifluoroethyl)azetidin-3-yl)ethynyl)-6,7-dihydro-7,14-methanobenzo[f]benzo[4,5]imidazo[1,2-a][1,4]diazocin-5(14H)-one]",< 100
7,"[2H]C([2H])([2H])N1C(=O)c2cccc(OC(F)F)c2[C@H]2C[C@@H]1c1nc3ccc(C#CC4CN(C(=O)C(C)(C)C)C4)cc3n12 [Example 125, (7R,14R)-1-(difluoromethoxy)-6-(methyl-d3)-11-((1-pivaloylazetidin-3-yl)ethynyl)-6,7-dihydro-7,14-methanobenzo[f]benzo[4,5]imidazo[1,2-a][1,4]diazocin-5(14H)-one]",< 100
8,"[2H]C([2H])([2H])N1C(=O)c2cccc(OC(F)F)c2[C@H]2C[C@@H]1c1nc3ccc(C#CC4CN(C(=O)C(C)(C)O)C4)cc3n12 [Example 126, (7R,14R)-1-(difluoromethoxy)-11-((1-(2-hydroxy-2-methylpropanoyl)azetidin-3-yl)ethynyl)-6-(methyl-d3)-6,7-dihydro-7,14-methanobenzo[f]benzo[4,5]imidazo[1,2-a][1,4]diazocin-5(14H)-one]",< 100
9,"[2H]C([2H])([2H])N1C(=O)c2cccc(OC(F)F)c2[C@H]2C[C@@H]1c1nc3ccc(C#CC4CN(C(=O)C5CC5)C4)cc3n12 [Example 127, (7R,14R)-11-((1-(cyclopropanecarbonyl)azetidin-3-yl)ethynyl)-1-(difluoromethoxy)-6-(methyl-d3)-6,7-dihydro-7,14-methanobenzo[f]benzo[4,5]imidazo[1,2-a][1,4]diazocin-5(14H)-one]",< 100
10,"[2H]C([2H])([2H])N1C(=O)c2cccc(OC(F)F)c2[C@H]2C[C@@H]1c1nc3ccc(C#C[C@@H](C)CO)cc3n12 [Example 128, (7R,14R)-1-(difluoromethoxy)-11-((R)-4-hydroxy-3-methylbut-1-yn-1-yl)-6-(methyl-d3)-6,7-dihydro-7,14-methanobenzo[f]benzo[4,5]imidazo[1,2-a][1,4]diazocin-5(14H)-one]",< 100
11,"[2H]C([2H])([2H])N1C(=O)c2cccc(OC(F)F)c2[C@H]2C[C@@H]1c1nc3ccc(C#C[C@H](C)CO)cc3n12 [Example 129, (7R,14R)-1-(difluoromethoxy)-11-((S)-4-hydroxy-3-methylbut-1-yn-1-yl)-6-(methyl-d3)-6,7-dihydro-7,14-methanobenzo[f]benzo[4,5]imidazo[1,2-a][1,4]diazocin-5(14H)-one]",< 100
12,"[2H]C([2H])([2H])N1C(=O)c2cccc(OC(F)F)c2[C@H]2C[C@@H]1c1nc3ccc(C#CC4(CO)CC4)cc3n12 [Example 130, (7R,14R)-1-(difluoromethoxy)-11-((1-(hydroxymethyl)cyclopropyl)ethynyl)-6-(methyl-d3)-6,7-dihydro-7,14-methanobenzo[f]benzo[4,5]imidazo[1,2-a][1,4]diazocin-5(14H)-one]",100 to 1000

# Further lines, results first:
row,IC50 [nM],Compound
1,< 100,"[2H]C([2H])([2H])N1C(=O)c2cccc(OC(F)F)c2[C@H]2C[C@@H]1c1nc3ccc(C#Cc4ccc(P(C)(C)=O)s4)cc3n12 [Example 107, (7R,14R)-1-(difluoromethoxy)-11-((5-(dimethylphosphoryl)thiophen-2-yl)ethynyl)-6-(methyl-d3)-6,7-dihydro-7,14-methanobenzo[f]benzo[4,5]imidazo[1,2-a][1,4]diazocin-5(14H)-one]"
2,< 100,"[2H]C([2H])([2H])N1C(=O)c2cccc(OC(F)F)c2[C@H]2C[C@@H]1c1nc3ccc(C#CCC(F)(F)F)cc3n12 [Example 108, (7R,14R)-1-(difluoromethoxy)-6-(methyl-d3)-11-(4,4,4-trifluorobut-1-yn-1-yl)-6,7-dihydro-7,14-methanobenzo[f]benzo[4,5]imidazo[1,2-a][1,4]diazocin-5(14H)-one]"
3,< 100,"[2H]C([2H])([2H])N1C(=O)c2cccc(OC(F)F)c2[C@H]2C[C@@H]1c1nc3ccc(C#CC4CC(O)C4)cc3n12 (stereo partly drawn) [Example 110, (7R,14R)-1-(difluoromethoxy)-11-((3-hydroxycyclobutyl)ethynyl)-6-(methyl-d3)-6,7-dihydro-7,14-methanobenzo[f]benzo[4,5]imidazo[1,2-a][1,4]diazocin-5(14H)-one]"
4,< 100,"[2H]C([2H])([2H])N1C(=O)c2cccc(OC(F)F)c2[C@H]2C[C@@H]1c1nc3ccc(C#CCCO)cc3n12 [Example 111, (7R,14R)-1-(difluoromethoxy)-11-(4-hydroxybut-1-yn-1-yl)-6-(methyl-d3)-6,7-dihydro-7,14-methanobenzo[f]benzo[4,5]imidazo[1,2-a][1,4]diazocin-5(14H)-one]"
5,< 100,"[2H]C([2H])([2H])N1C(=O)c2cccc(OC(F)F)c2[C@H]2C[C@@H]1c1nc3ccc(C#Cc4ccc(P(C)(C)=O)nc4)cc3n12 [Example 112, (7R,14R)-1-(difluoromethoxy)-11-((6-(dimethylphosphoryl)pyridin-3-yl)ethynyl)-6-(methyl-d3)-6,7-dihydro-7,14-methanobenzo[f]benzo[4,5]imidazo[1,2-a][1,4]diazocin-5(14H)-one]"
6,< 100,"[2H]C([2H])([2H])N1C(=O)c2cccc(OC(F)F)c2[C@H]2C[C@@H]1c1nc3ccc(C#CC4CC(N)C4)cc3n12 (stereo partly drawn) [Example 113, (7R,14R)-11-((3-aminocyclobutyl)ethynyl)-1-(difluoromethoxy)-6-(methyl-d3)-6,7-dihydro-7,14-methanobenzo[f]benzo[4,5]imidazo[1,2-a][1,4]diazocin-5(14H)-one]"
7,< 100,"[2H]C([2H])([2H])N1C(=O)c2cccc(OC(F)F)c2[C@H]2C[C@@H]1c1nc3ccc(C#CCCCN4CCOCC4)cc3n12 [Example 114, (7R,14R)-1-(difluoromethoxy)-6-(methyl-d3)-11-(5-morpholinopent-1-yn-1-yl)-6,7-dihydro-7,14-methanobenzo[f]benzo[4,5]imidazo[1,2-a][1,4]diazocin-5(14H)-one]"
8,< 100,"[2H]C([2H])([2H])N1C(=O)c2cccc(OC(F)F)c2[C@H]2C[C@@H]1c1nc3ccc(C#CCOC4CCN(C)CC4)cc3n12 [Example 115, (7R,14R)-1-(difluoromethoxy)-6-(methyl-d3)-11-(3-((1-methylpiperidin-4-yl)oxy)prop-1-yn-1-yl)-6,7-dihydro-7,14-methanobenzo[f]benzo[4,5]imidazo[1,2-a][1,4]diazocin-5(14H)-one]"
9,< 100,"[2H]C([2H])([2H])N1C(=O)c2cccc(OC(F)F)c2[C@H]2C[C@@H]1c1nc3ccc(C#CC4CN(CC)C4)cc3n12 [Example 118, (7R,14R)-1-(difluoromethoxy)-11-((1-ethylazetidin-3-yl)ethynyl)-6-(methyl-d3)-6,7-dihydro-7,14-methanobenzo[f]benzo[4,5]imidazo[1,2-a][1,4]diazocin-5(14H)-one]"
10,< 100,"[2H]C([2H])([2H])N1C(=O)c2cccc(OC(F)F)c2[C@H]2C[C@@H]1c1nc3ccc(C#CC4CN(C(C)C)C4)cc3n12 [Example 119, (7R,14R)-1-(difluoromethoxy)-11-((1-isopropylazetidin-3-yl)ethynyl)-6-(methyl-d3)-6,7-dihydro-7,14-methanobenzo[f]benzo[4,5]imidazo[1,2-a][1,4]diazocin-5(14H)-one]"

# Same assay, conditions: IC50 value, HEK Blue TNFα reporter cells; TNF-α 100 μg/ml; 24 hrs at 37° C.; inhibition of secreted alkaline phosphatase
row,IC50 [nM],Compound
1,< 100,"[2H]C([2H])([2H])N1C(=O)c2cccc(OC(F)F)c2[C@H]2C[C@@H]1c1nc3ccc(C#CC4CN(C(C)=O)C4)cc3n12 [Example 120, (7R,14R)-11-((1-acetylazetidin-3-yl)ethynyl)-1-(difluoromethoxy)-6-(methyl-d3)-6,7-dihydro-7,14-methanobenzo[f]benzo[4,5]imidazo[1,2-a][1,4]diazocin-5(14H)-one]"
